Like-named read-outs stand apart in the source and are kept apart here.
Experiments:
[1] = biological target: Rhesus PDE2A3 (Macaca mulatta, UniProt B3VTJ2); assay: PDE2 fluorescence polarization (IMAP FP) inhibition assay, rhesus enzyme; format: biochemical, rhesus macaque
Outline: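 IMAP FP (mP from parallel and perpendicular fluorescence against substrate-only control) was read ≥1 h after adding binding reagent. The preceding 60 min room-temperature reaction contained FAM-cAMP (50 nM) and cGMP (1 uM) in pH 7.2 Tris buffer with MgCl2 and DTT. Enzyme was supernatant of sonicated AD293 cells expressing rhesus PDE2A3; compounds were 3-fold titrated, DMSO 1% final.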

[2] = biological target: human PDE2A1 (Homo sapiens (Human), UniProt O00408); assay: IMAP FP PDE selectivity panel, human PDE2A1; format: biochemical
Chain of human PDE2A1 (O00408 other isoform, or with tags, fused parts or gaps): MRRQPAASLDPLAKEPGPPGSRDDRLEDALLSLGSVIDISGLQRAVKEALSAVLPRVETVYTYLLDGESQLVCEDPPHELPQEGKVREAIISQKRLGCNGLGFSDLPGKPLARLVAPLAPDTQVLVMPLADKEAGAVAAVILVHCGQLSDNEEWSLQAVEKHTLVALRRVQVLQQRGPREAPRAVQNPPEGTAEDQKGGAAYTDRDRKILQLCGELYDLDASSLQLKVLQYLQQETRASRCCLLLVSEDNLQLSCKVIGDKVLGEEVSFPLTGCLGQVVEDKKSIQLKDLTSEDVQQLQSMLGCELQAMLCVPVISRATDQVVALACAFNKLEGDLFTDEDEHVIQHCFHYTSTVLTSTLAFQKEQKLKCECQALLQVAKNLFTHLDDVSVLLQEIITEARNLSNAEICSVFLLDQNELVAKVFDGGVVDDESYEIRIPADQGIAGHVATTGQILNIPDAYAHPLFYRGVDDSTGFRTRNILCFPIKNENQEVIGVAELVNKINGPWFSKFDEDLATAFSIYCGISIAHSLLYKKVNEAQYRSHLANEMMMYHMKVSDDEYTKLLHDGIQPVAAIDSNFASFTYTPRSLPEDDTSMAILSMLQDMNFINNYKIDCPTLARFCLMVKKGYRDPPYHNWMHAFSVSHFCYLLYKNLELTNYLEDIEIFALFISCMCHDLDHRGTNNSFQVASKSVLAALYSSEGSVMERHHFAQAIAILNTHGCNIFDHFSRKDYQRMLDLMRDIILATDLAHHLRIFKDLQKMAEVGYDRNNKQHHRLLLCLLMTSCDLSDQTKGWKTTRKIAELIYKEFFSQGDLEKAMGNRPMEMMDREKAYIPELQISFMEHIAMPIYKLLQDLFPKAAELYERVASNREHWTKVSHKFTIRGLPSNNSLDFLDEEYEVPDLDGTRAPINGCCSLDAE
Outline: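 IMAP FP format: substrate 50 nM FAM-cAMP plus 1000 nM cGMP, enzyme (insect-cell GST-tagged human PDE2A1) at ~20% conversion, 60 min reaction at room temperature. Apparent inhibition constants calculated from parallel/perpendicular fluorescence with KM 10,000 nM.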

[3] = Rhesus PDE2, Lab A, read-out: Rhesus PDE2 Ki (nM) - Lab A
[4] = Human PDE2, Lab A, read-out: Human PDE2 Ki (nM) - Lab A
[5] = Rhesus PDE2, Lab B, read-out: Rhesus PDE2 Ki (nM) - Lab B
[6] = Human PDE2, Lab B, read-out: Human PDE2 Ki (nM) - Lab B

Chain of Rhesus PDE2A3 (B3VTJ2 1-941): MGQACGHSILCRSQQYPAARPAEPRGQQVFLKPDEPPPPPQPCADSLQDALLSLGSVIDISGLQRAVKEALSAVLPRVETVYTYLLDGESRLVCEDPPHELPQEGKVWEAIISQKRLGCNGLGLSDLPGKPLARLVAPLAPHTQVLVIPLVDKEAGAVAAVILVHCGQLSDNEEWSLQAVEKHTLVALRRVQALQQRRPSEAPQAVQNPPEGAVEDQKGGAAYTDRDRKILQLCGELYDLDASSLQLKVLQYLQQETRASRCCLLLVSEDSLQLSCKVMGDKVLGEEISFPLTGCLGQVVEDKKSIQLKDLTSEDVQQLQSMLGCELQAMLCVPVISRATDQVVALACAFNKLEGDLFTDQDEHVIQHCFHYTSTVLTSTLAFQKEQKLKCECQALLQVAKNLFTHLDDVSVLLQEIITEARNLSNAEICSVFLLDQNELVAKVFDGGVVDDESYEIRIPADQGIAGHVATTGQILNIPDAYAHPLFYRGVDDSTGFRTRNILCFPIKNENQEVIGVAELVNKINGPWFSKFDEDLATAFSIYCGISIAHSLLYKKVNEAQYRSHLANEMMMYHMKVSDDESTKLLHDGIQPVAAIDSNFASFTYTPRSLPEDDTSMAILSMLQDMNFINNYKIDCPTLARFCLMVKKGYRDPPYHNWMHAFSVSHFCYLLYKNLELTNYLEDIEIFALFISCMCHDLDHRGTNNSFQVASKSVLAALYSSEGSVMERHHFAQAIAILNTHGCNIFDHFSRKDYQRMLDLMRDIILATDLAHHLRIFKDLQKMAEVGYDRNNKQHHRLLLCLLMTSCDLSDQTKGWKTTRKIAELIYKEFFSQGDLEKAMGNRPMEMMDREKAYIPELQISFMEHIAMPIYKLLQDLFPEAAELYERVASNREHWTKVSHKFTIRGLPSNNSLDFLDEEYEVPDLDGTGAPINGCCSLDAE

| SMILES | Ki [1, 3] [nM] | Ki [2, 4] [nM] | Ki [1, 5] [nM] | Ki [2, 6] [nM] |
| --- | --- | --- | --- | --- |
| CC(C)[C@@H](NC(=O)c1cc(=O)[nH]c(C2CC2)n1)c1ccc(OC(F)(F)F)c(F)c1 [Example 128, 2-cyclopropyl-N-{(1R)-1-[3-fluoro-4-(trifluoromethoxy)phenyl]-2-methylpropyl}-6-oxo-1,6-dihydropyrimidine-4-carboxamide] | 2 | 1.2 |  |  |
| O=C(NC1(c2ccc(C(F)(F)F)cc2)CCC1)c1cc(=O)[nH]c(-c2ncccn2)n1 [Example 286, 6-oxo-N-{1-[4-(trifluoromethyl)phenyl]cyclobutyl}-1,6-dihydro-2,2′-bipyrimidine-4-carboxamide] | 83 | 60 |  |  |
| COCc1nc(C(=O)N[C@@H](c2ccc(OC(F)(F)F)cc2)C2CC2)cc(=O)[nH]1 [Example 116, N-{(R)-cyclopropyl[4-(trifluoromethoxy)phenyl]methyl}-2-(methoxymethyl)-6-oxo-1,6-dihydropyrimidine-4-carboxamide] | 70 | 16 |  |  |
| Cc1nc(C(=O)N[C@@H](c2ccc(OC(F)(F)F)cc2)C(C)(C)C)cc(=O)[nH]1 [Example 57, (R)-N-(2,2-dimethyl-1-(4-(trifluoromethoxy)phenyl)propyl)-2-methyl-6-oxo-1,6-dihydropyrimidine-4-carboxamide] |  |  | 5.8 | 3.9 |
| CC[C@@H](NC(=O)c1cc(=O)[nH]c(C)n1)c1ccc(OC(F)(F)F)c(F)c1 [Example 39, N-{(1R)-1-[3-fluoro-4-(trifluoromethoxy)phenyl]propyl}-2-methyl-6-oxo-1,6-dihydropyrimidine-4-carboxamide] | 17 | 8.8 |  |  |
| Cc1nc(C(=O)NC(C(=O)O)c2ccc(C(F)(F)F)cc2)cc(=O)[nH]1 (racemic) [Example 326, 2-(2-Methyl-6-oxo-1,6-dihydropyrimidine-4-carboxamido)-2-(4-(trifluoromethyl)phenyl)acetic acid] | 70 | 67 |  |  |
| C[C@@H](NC(=O)c1cc(=O)[nH]c(C2CC2)n1)c1ccc(CC(F)(F)F)cc1 [Example 217, 2-cyclopropyl-6-oxo-N-{(1R)-1-[4-(2,2,2-trifluoroethyl)phenyl]ethyl}-1,6-dihydropyrimidine-4-carboxamide] | 29 | 14 |  |  |
| COc1ccc([C@@H](C)NC(=O)c2cc(=O)[nH]c(-c3ccccc3)n2)cc1 [Example 347, N-[(1R)-1-(4-methoxyphenyl)ethyl]-6-oxo-2-phenyl-1,6-dihydropyrimidine-4-carboxamide] | 45 |  | 74 | 50 |
| C[C@@H](NC(=O)c1nc[nH]c(=O)c1C1CCC1)c1ccc(C(F)(F)F)cc1 [Example 334, (R)-5-cyclobutyl-6-oxo-N-(1-(4-(trifluoromethyl)phenyl)ethyl)-1,6-dihydropyrimidine-4-carboxamide] | 2830 | 2370 |  |  |
| Cc1nc(C(=O)N[C@@H](c2ccc(C(F)(F)F)cc2)[C@@H](C)O)cc(=O)[nH]1 [Example 65, N-((1S,2R)-2-hydroxy-1-(4-(trifluoromethyl)phenyl)propyl)-2-methyl-6-oxo-1,6-dihydropyrimidine-4-carboxamide] | 38 | 18 |  |  |
| C[C@@H](NC(=O)c1cc(=O)[nH]c(C2CC2)n1)c1ccc(C2CC2)cc1 [Example 256, 2-cyclopropyl-N-[(1R)-1-(4-cyclopropylphenyl)ethyl]-6-oxo-1,6-dihydropyrimidine-4-carboxamide] | 13 | ~12 | 21 | 20 |
| COc1ccc2cc(C(C)NC(=O)c3cc(=O)[nH]c(C4CC4)n3)ccc2c1 (stereo not shown) [Example 192, 2-cyclopropyl-N-[1-(6-methoxynaphthalen-2-yl)ethyl]-6-oxo-1,6-dihydropyrimidine-4-carboxamide] | 151 | 81 |  |  |
| COCc1nc(C(=O)N[C@H](C)c2ccc(C(C)C)cc2)cc(=O)[nH]1 [Example 122, 2-(methoxymethyl)-N-{(1R)-1-[4-(1-methylethyl)phenyl]ethyl}-6-oxo-1,6-dihydropyrimidine-4-carboxamide] | 152 | 38 |  |  |
| COc1cc(C(F)(F)F)ccc1[C@@H](C)NC(=O)c1cc(=O)[nH]c(C2CC2)n1 [Example 219, 2-cyclopropyl-N-{(1R)-1-[2-methoxy-4-(trifluoromethyl)phenyl]ethyl}-6-oxo-1,6-dihydropyrimidine-4-carboxamide] | 43 | 31 |  |  |
| COc1cc(OC(F)(F)F)ccc1C(C)NC(=O)c1cc(=O)[nH]c(-c2ccccc2)n1 (stereo not shown) [Example 387, N-{1-[2-methoxy-4-(trifluoromethoxy)phenyl]ethyl}-6-oxo-2-phenyl-1,6-dihydropyrimidine-4-carboxamide] |  |  | 9.6 | 8.1 |
| C[C@@H](NC(=O)c1cc(=O)[nH]c(-c2ncccn2)n1)c1ccc(OC(F)(F)F)cc1 [Example 283, 6-oxo-N-{(1R)-1-[4-(trifluoromethoxy)phenyl]ethyl}-1,6-dihydro-2,2′-bipyrimidine-4-carboxamide] | 8.7 | 6 |  |  |

Now from value to molecule:

| Ki [1, 3] [nM] | Ki [2, 4] [nM] | Ki [1, 5] [nM] | Ki [2, 6] [nM] | SMILES |
| --- | --- | --- | --- | --- |
|  |  | 3.8 | 4 | CC1([C@@H](NC(=O)c2cc(=O)[nH]c(C3CC3)n2)c2ccc(S(F)(F)(F)(F)F)cc2)CC1 [Example 454, 2-cyclopropyl-N-{(R)-(1-methylcyclopropyl)[4-(pentafluoro-λ^6-sulfanyl)phenyl]methyl}-6-oxo-1,6-dihydropyrimidine-4-carboxamide] |
|  |  | 1.9 | 2 | COc1ccc(Cc2nc(C(=O)N[C@@H](c3ccc(SC(F)(F)F)cc3)C3CC3)cc(=O)[nH]2)cc1 [Example 479, N-[(R)-cyclopropyl{4-[(trifluoromethyl)sulfanyl]phenyl}methyl]-2-(4-methoxybenzyl)-6-oxo-1,6-dihydropyrimidine-4-carboxamide] |
|  |  | 7.3 | 7.6 | O=C(N[C@@H](c1ccc(C2CC2)cc1)C1CC1)c1cc(=O)[nH]c(-c2ncccn2)n1 [Example 453, N-[(R)-cyclopropyl(4-cyclopropylphenyl)methyl]-6-oxo-1,6-dihydro-2,2′-bipyrimidine-4-carboxamide] |
|  |  | 2.1 | 2.1 | COc1ccc(Cc2nc(C(=O)N[C@@H](c3ccc(OC(F)(F)F)cc3)C3CC3)cc(=O)[nH]2)cc1F [Example 524, N-{(R)-cyclopropyl[4-(trifluoromethoxy)phenyl]methyl}-2-(3-fluoro-4-methoxybenzyl)-6-oxo-1,6-dihydropyrimidine-4-carboxamide] |
|  |  | 61 | 63 | COc1ccc(C(C)(C)c2nc(C(=O)N[C@@H](c3ccc(OC(F)(F)F)c(F)c3)C(C)(C)C)cc(=O)[nH]2)cc1 [Example 487, N-{(1R)-1-[3-fluoro-4-(trifluoromethoxy)phenyl]-2,2-dimethylpropyl}-2-[1-(4-methoxyphenyl)-1-methylethyl]-6-oxo-1,6-dihydropyrimidine-4-carboxamide] |
|  |  | 65 | 40 | CC(NC(=O)c1cc(=O)[nH]c(-c2ccccc2)n1)c1ccc(C(C)(C)C)cc1 (stereo not shown) [Example 391, N-[1-(4-tert-butylphenyl)ethyl]-6-oxo-2-phenyl-1,6-dihydropyrimidine-4-carboxamide] |
|  |  | 1.2 | 1.1 | CC[C@@H](NC(=O)c1cc(=O)[nH]c(Cc2ccc(OC)c(F)c2)n1)c1ccc(OC(F)(F)F)c(F)c1 [Example 528, 2-(3-fluoro-4-methoxybenzyl)-N-{(1R)-1-[3-fluoro-4-(trifluoromethoxy)phenyl]propyl}-6-oxo-1,6-dihydropyrimidine-4-carboxamide] |
|  |  | 7.5 | 7.8 | CC(C)(C)[C@@H](NC(=O)c1cc(=O)[nH]c(-c2ncccn2)n1)c1ccc(OC(F)(F)F)cc1 [Example 461, N-{(1R)-2,2-dimethyl-1-[4-(trifluoromethoxy)phenyl]propyl}-6-oxo-1,6-dihydro-2,2′-bipyrimidine-4-carboxamide] |
|  |  | 29 | 31 | Cc1nc(C(=O)NC2(c3ccc(C(C)(C)C)cc3)CC2)cc(=O)[nH]1 [Example 623, N-[1-(4-tert-butylphenyl)cyclopropyl]-2-methyl-6-oxo-1,6-dihydropyrimidine-4-carboxamide] |
|  |  | 8 | 7 | CC1([C@@H](NC(=O)c2cc(=O)[nH]c(C3CC3)n2)c2ccc(OC(F)F)cc2)CC1 [Example 443, 2-cyclopropyl-N-[(1R)-[4-(difluoromethoxy)phenyl](1-methylcyclopropyl)methyl]-6-oxo-1,6-dihydropyrimidine-4-carboxamide] |
|  |  | 29 | 30 | O=C(NC1(c2ccc(C(F)(F)F)cc2)CCCC1)c1cc(=O)[nH]c(-c2ccccc2)n1 [Example 415, 6-oxo-2-phenyl-N-{1-[4-(trifluoromethyl)phenyl]cyclopentyl}-1,6-dihydropyrimidine-4-carboxamide] |
|  |  | 9.1 | 9.5 | Cc1nc(C(=O)N[C@@H](c2ccc(C3CC3)c(F)c2)C2CC2)cc(=O)[nH]1 [Example 426, N-[(R)-cyclopropyl(4-cyclopropyl-3-fluorophenyl)methyl]-2-methyl-6-oxo-1,6-dihydropyrimidine-4-carboxamide] |
|  |  | 2 | 2 | Cc1nc(C(=O)N[C@@H](c2ccc(S(F)(F)(F)(F)F)cc2)C(C)(C)C)cc(=O)[nH]1 [Example 618, N-{(1R)-2,2-dimethyl-1-[4-(pentafluoro-λ^6-sulfanyl)phenyl]propyl}-2-methyl-6-oxo-1,6-dihydropyrimidine-4-carboxamide] |
